The GI50 is the concentration at which growth is held to half of that of the control.

Where two headings read alike, the source gives them in different places. A value given as a limit tells only on which side of the number the result lay.

Common to all, as to format: cell-based
For assay [1], the system named is HCC827 cells. The assay is described as follows: Cell growth inhibition (CellTiter-Glo), HCC827. Particulars: Homo sapiens, 72 h, 3 days. The essentials:
(§1)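 Readout was CellTiter-Glo luminescence after 3-day compound treatment at 37° C. Cells were seeded at 5000/well the previous night: HCC827 in RPMI/10% FBS, A431 in DMEM/10% FBS.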

The test system of assay [2] is HCC827-SVD cells (human EGFR exon 20 insertion mutant D770_N771insSVD). The experiment in a line: Cell growth inhibition (CellTiter-Glo), HCC827-SVD. Particulars: 72 h, 3 days. The essentials:
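Growth read by CellTiter-Glo luminescence after 3-day compound exposure at 37 °C. Engineered clonal HCC827 line (native EGFR deleted by CRISPR, mutant EGFR re-expressed) plated at 5000 cells/well in 10% FBS RPMI the night before dosing.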
In general terms: ATP-based viability assays read luminescence as a measure of living cells.

The test system of assay [3] is HCC827-ASV cells (human EGFR exon 20 insertion mutant V769_D770insASV). The experiment in a line: Cell growth inhibition (CellTiter-Glo), HCC827-ASV. Particulars: 72 h, read-out: Cell growth inhibition, GI50 (nM) HCC827-ASV. The protocol: Generation of HCC827-SVD, HCC827-ASV, and HCC827-YVMA cell lines. The HCC827-SVD cell line was generated by first transducing HCC827 cells (ATCC) with lentiviral particles expressing codon-optimized human EGFR exon 20 insertion mutant D770_N771insSVD, and then selecting under 5 µg/mL puromycin treatment for a week. The resulting cells were further transduced with lentiviral particles carrying EGFR sgRNA and CAS9 to knockout the endogenous alleles of EGER and then selected under 500 µg/mL hygromycin B treatment for two weeks. The limiting dilution approach was used to subsequently generate the single clone of the HCC827-SVD stable cell line. Endogenous EGFR knockout was confirmed by Sanger sequencing of cell genomic DNA, and expression of exogenous mutant EGFR was verified by Western blot analysis.
HCC827-ASV and HCC827-YVMA cell lines were generated in a similar approach as HCC827-SVD, except that HCC827 cells (ATCC) were first transduced with lentiviral particles expressing codon-optimized human EGFR exon 20 insertion mutant V769_D770insASV and human ERBB2 exon20 insertion mutant A775_G776ins YVMA, respectively.
2. Cell Growth Inhibition for HCC827, HCC827-SVD, HCC827-ASV, HCC827-YVMA, and A431.
HCC827(ATCC), HCC827-SVD, HCC827-ASV, and HCC827-YVMA cells were seeded in 96-well plates at 5000 cells/well in 90 μL of RPMI growth medium containing 10% FBS and 1% Penicillin Streptomycin. A431 (ATCC) cells were seeded in 96-well plates at 5000 cells/well in 90 μL of DMEM growth medium containing 10% FBS and 1% Penicillin Streptomycin. Cells were incubated at 37° C. overnight and then administered with 10 μL 10× test compounds prepared in the growth medium at various concentrations. After administration of the compounds, cells were incubated at 37° C. for 3 days. Before the CellTiter-Glo assay, the plates were equilibrated at room temperature for approximately 30 minutes. 100 ul of CellTiter-Glo reagent (Promega) was added to each well. The plates were then incubated at room temperature for 10 minutes and luminescence was recorded by the EnSight® multimode plate reader (PerkinElmer). Table 7 listed selected compounds in cellular growth assay.

Assay [4] deals with HCC827-YVMA cells (human ERBB2 exon20 insertion mutant A775_G776ins YVMA). The experiment in a line: Cell growth inhibition (CellTiter-Glo), HCC827-YVMA. Conditions: 72 h, read-out: Cell growth inhibition, GI50 (nM) HCC827-YVMA. The essentials:
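Growth in RPMI with 10% FBS was measured by CellTiter-Glo luminescence after 3 days at 37 °C with test compounds across a concentration range. The single-clone HCC827 lines carry a lentiviral YVMA (ERBB2) or ASV (EGFR) exon 20 insertion, with endogenous EGFR removed via sgRNA/Cas9.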

Assay [5] relates to A431 cells. The experiment in a line: Cell growth inhibition (CellTiter-Glo), A431. Conditions: Homo sapiens, A-431, 72 h, 3 days. The essentials:
as §1

[6] abbreviates: HCC827-ASV cells, 3 days, CellTiter-Glo.
The mark [7] stands for this setting: HCC827-YVMA cells, 3 days, CellTiter-Glo.

In the case of `C=CC(=O)N1CCC(c2c[nH]c3ncnc(Nc4ccc(Oc5ccnc(NC(=O)C6CCCC6)c5)cc4F)c23)CC1` [Compound 90, N-(4-(4-((5-(1-acryloylpiperidin-4-yl)-7H-pyrrolo[2,3-d]pyrimidin-4-yl)amino)-3-fluorophenoxy)pyridin-2-yl)cyclopentanecarboxamide], the GI50 in assay [1] is 50 to 200 nM; in assay [2], 50 to 200 nM; in assay [3] (setting [6]), under 50 nM; in assay [4] (setting [7]), under 50 nM; in assay [5], 200 to 1000 nM.
In the case of `C=CC(=O)N1CCC(c2c[nH]c3ncnc(Nc4ccc(Oc5ccnc(Nc6ccccn6)c5)cc4F)c23)CC1` [Compound 135, 1-(4-(4-((2-fluoro-4-((2-(pyridin-2-ylamino)pyridin-4-yl)oxy)phenyl)amino)-7H-pyrrolo[2,3-d]pyrimidin-5-yl)piperidin-1-yl)prop-2-en-1-one], the GI50 in assay [1] is over 1000 nM; in assay [2] it was under 50 nM; in assay [3] (setting [6]), under 50 nM; in assay [4] (setting [7]), under 50 nM; in assay [5] it was 200 to 1000 nM.
As for `C=CC(=O)N1CCC(c2c[nH]c3ncnc(Nc4ccc(Oc5ccnc(-n6ccc(OC)n6)c5)cc4F)c23)CC1` [Compound 136, 1-(4-(4-((2-fluoro-4-((2-(3-methoxy-1H-pyrazol-1-yl)pyridin-4-yl)oxy)phenyl)amino)-7H-pyrrolo[2,3-d]pyrimidin-5-yl)piperidin-1-yl)prop-2-en-1-one], the GI50 was 200 to 1000 nM in assay [1]; 50 to 200 nM in assay [2]; under 50 nM in assay [3] (setting [6]); under 50 nM in assay [4] (setting [7]); over 1000 nM in assay [5].
For the molecule `C=CC(=O)N1CCC(c2c[nH]c3ncnc(Nc4ccc(Oc5ccnc(N6CC(O)(C(F)(F)F)C6)c5)cc4F)c23)CC1` [Compound 144, 1-(4-(4-((2-fluoro-4-((2-(3-hydroxy-3-(trifluoromethyl)azetidin-1-yl)pyridin-4-yl)oxy)phenyl)amino)-7H-pyrrolo[2,3-d]pyrimidin-5-yl)piperidin-1-yl)prop-2-en-1-one], the GI50 was 50 to 200 nM in assay [1]; over 1000 nM in assay [2]; under 50 nM in assay [3] (setting [6]); under 50 nM in assay [4] (setting [7]); over 1000 nM in assay [5].
On to `C=CC(=O)N1CCC(c2c[nH]c3ncnc(Nc4ccc(Oc5ccnc(N6CCN(C)CC6)c5)cc4F)c23)CC1` [Compound 152, 1-(4-(4-((2-fluoro-4-((2-(4-methylpiperazin-1-yl)pyridin-4-yl)oxy)phenyl)amino)-7H-pyrrolo[2,3-d]pyrimidin-5-yl)piperidin-1-yl)prop-2-en-1-one], for which the GI50 in assay [1] is over 1000 nM; in assay [2], 200 to 1000 nM; in assay [3] (setting [6]), 200 to 1000 nM; in assay [4] (setting [7]), 200 to 1000 nM; in assay [5] it was over 1000 nM.
Take `C=CC(=O)N1CC=C(c2c[nH]c3ncnc(Nc4ccc(OCc5ccccn5)c(Cl)c4)c23)CC1` [Compound 154, 1-(4-(4-((3-chloro-4-(pyridin-2-ylmethoxy)phenyl)amino)-7H-pyrrolo[2,3-d]pyrimidin-5-yl)-3,6-dihydropyridin-1(2H)-yl)prop-2-en-1-one]: the GI50 in assay [1] is under 50 nM; in assay [2], under 50 nM; in assay [3] (setting [6]) it was under 50 nM; in assay [4] (setting [7]) it was under 50 nM; in assay [5], 200 to 1000 nM.
In the case of `C=CC(=O)N1CCC(c2c[nH]c3ncnc(Nc4ccc(Oc5ccnc(N6C[C@@H](C)O[C@@H](C)C6)c5)cc4F)c23)CC1` [Compound 155, 1-(4-(4-((4-((2-((2S,6R)-2,6-dimethylmorpholino)pyridin-4-yl)oxy)-2-fluorophenyl)amino)-7H-pyrrolo[2,3-d]pyrimidin-5-yl)piperidin-1-yl)prop-2-en-1-one], the GI50 in assay [1] is over 1000 nM; in assay [2], 50 to 200 nM; in assay [3] (setting [6]), 200 to 1000 nM; in assay [4] (setting [7]), 50 to 200 nM; in assay [5] it was over 1000 nM.
In the case of `C=CC(=O)N1CCC(c2c[nH]c3ncnc(Nc4ccc(OCc5cc6sccc6cn5)c(Cl)c4)c23)CC1` [Compound 224, 1-(4-(4-((3-chloro-4-(thieno[3,2-c]pyridin-6-ylmethoxy)phenyl)amino)-7H-pyrrolo[2,3-d]pyrimidin-5-yl)piperidin-1-yl)prop-2-en-1-one], the GI50 in assay [2], in assay [3] and in assay [4] was under 50 nM in each case.
Take `C=CC(=O)N1CCC(c2c[nH]c3ncnc(Nc4ccc5c(cnn5Cc5cccc(F)c5)c4)c23)CC1` [Compound 226, 1-(4-(4-((1-(3-fluorobenzyl)-1H-indazol-5-yl)amino)-7H-pyrrolo[2,3-d]pyrimidin-5-yl)piperidin-1-yl)prop-2-en-1-one]: the GI50 in assay [2], in assay [3] (setting [6]) and in assay [4] (setting [7]) was under 50 nM in each case.
For `[2H]C([2H])(Oc1ccc(Nc2ncnc3[nH]cc(C4CCN(C(=O)C=C)CC4)c23)cc1Cl)c1ccccn1` [Compound 227, 1-(4-(4-((3-chloro-4-(pyridin-2-ylmethoxy-d2)phenyl)amino)-7H-pyrrolo[2,3-d]pyrimidin-5-yl)piperidin-1-yl)prop-2-en-1-one], the concentration for 50% growth inhibition (GI50) in assay [2], in assay [3] (setting [6]) and in assay [4] (setting [7]) was under 50 nM throughout.
With `C=CC(=O)N1CCC(c2c[nH]c3ncnc(Nc4ccc(OCc5cccc(F)c5)c(Cl)c4)c23)CC1` [Compound 228, 1-(4-(4-((3-chloro-4-((3-fluorobenzyl)oxy)phenyl)amino)-7H-pyrrolo[2,3-d]pyrimidin-5-yl)piperidin-1-yl)prop-2-en-1-one], the GI50 in assay [2], in assay [3] (setting [6]) and in assay [4] (setting [7]) was under 50 nM throughout.
Turning to `C=CC(=O)N1CCC(c2c[nH]c3ncnc(Nc4ccc(OCc5ccsn5)c(Cl)c4)c23)CC1` [Compound 229, 1-(4-(4-((3-chloro-4-(isothiazol-3-ylmethoxy)phenyl)amino)-7H-pyrrolo[2,3-d]pyrimidin-5-yl)piperidin-1-yl)prop-2-en-1-one], the GI50 in assay [2], in assay [3] (setting [6]) and in assay [4] (setting [7]) was under 50 nM each time.
Turning to `C=CC(=O)N1[C@@H]2CC[C@H]1CC(c1c[nH]c3ncnc(Nc4ccc(OCc5ccccn5)c(Cl)c4)c13)C2` (stereo partly drawn) [Compound 230], the GI50 in assay [2], in assay [3] (setting [6]) and in assay [4] (setting [7]) was under 50 nM in each case.
As for `C=CC(=O)N1CCC(c2c[nH]c3ncnc(Nc4ccc(Oc5ccnc(NC(=O)C6CCC6)c5)cc4F)c23)CC1` [Compound 231, N-(4-(4-((5-(1-acryloylpiperidin-4-yl)-7H-pyrrolo[2,3-d]pyrimidin-4-yl)amino)-3-fluorophenoxy)pyridin-2-yl)cyclobutanecarboxamide], the GI50 in assay [2], in assay [3] (setting [6]) and in assay [4] (setting [7]) was 50 to 200 nM each time.
On to `C=CC(=O)N1CCC(c2c[nH]c3ncnc(Nc4ccc(Oc5ccnc(NC(=O)C6CC6)c5)cc4F)c23)CC1` [Compound 232, N-(4-(4-((5-(1-acryloylpiperidin-4-yl)-7H-pyrrolo[2,3-d]pyrimidin-4-yl)amino)-3-fluorophenoxy)pyridin-2-yl)cyclopropanecarboxamide], for which the GI50 in assay [2] is under 50 nM; in assay [3] (setting [6]), under 50 nM; in assay [4] (setting [7]) it was under 50 nM; in assay [5], over 1000 nM.

Source of the values: patent US20240059698A1 (Accutar Biotechnology Inc., priority 2022, published 2024).
